From US12509431B2, “1,4-dihydroquinazolinone compounds and uses thereof” (Edgewise Therapeutics, Inc., priority 2022, dated 2025)

Assays:
Format in all cases: biochemical
Details in all cases: Table 8
[1] = system: Rabbit Skeletal myofibrils (rabbit psoas muscle); experiment: Myofibril ATPase assay (PK/LDH NADH-coupled), skeletal myofibrils
How it was run: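 ATPase rate taken as linear-regression slope of A340 (NADH depletion through PK/LDH coupling) over a 75 min kinetic read, with psoas-derived rabbit skeletal myofibrils at pH 7.0. Four-parameter fits of vehicle-normalized activity give EC25 and, where reached, EC50.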

[2] = target: T1, Porcine Ventricle myofibrils (left ventricle of Yucatan minipigs) (Sus scrofa, UniProt P79293); experiment: Myofibril ATPase assay (PK/LDH NADH-coupled), ventricle myofibrils
T1 construct: Myofibrils from porcine cardiac muscle was isolated from the left ventricle of Yucatan minipigs; tissue Exemplar Genetics; host or cells: left ventricle of Yucatan minipigs
T1 sequence (P79293 whole entry): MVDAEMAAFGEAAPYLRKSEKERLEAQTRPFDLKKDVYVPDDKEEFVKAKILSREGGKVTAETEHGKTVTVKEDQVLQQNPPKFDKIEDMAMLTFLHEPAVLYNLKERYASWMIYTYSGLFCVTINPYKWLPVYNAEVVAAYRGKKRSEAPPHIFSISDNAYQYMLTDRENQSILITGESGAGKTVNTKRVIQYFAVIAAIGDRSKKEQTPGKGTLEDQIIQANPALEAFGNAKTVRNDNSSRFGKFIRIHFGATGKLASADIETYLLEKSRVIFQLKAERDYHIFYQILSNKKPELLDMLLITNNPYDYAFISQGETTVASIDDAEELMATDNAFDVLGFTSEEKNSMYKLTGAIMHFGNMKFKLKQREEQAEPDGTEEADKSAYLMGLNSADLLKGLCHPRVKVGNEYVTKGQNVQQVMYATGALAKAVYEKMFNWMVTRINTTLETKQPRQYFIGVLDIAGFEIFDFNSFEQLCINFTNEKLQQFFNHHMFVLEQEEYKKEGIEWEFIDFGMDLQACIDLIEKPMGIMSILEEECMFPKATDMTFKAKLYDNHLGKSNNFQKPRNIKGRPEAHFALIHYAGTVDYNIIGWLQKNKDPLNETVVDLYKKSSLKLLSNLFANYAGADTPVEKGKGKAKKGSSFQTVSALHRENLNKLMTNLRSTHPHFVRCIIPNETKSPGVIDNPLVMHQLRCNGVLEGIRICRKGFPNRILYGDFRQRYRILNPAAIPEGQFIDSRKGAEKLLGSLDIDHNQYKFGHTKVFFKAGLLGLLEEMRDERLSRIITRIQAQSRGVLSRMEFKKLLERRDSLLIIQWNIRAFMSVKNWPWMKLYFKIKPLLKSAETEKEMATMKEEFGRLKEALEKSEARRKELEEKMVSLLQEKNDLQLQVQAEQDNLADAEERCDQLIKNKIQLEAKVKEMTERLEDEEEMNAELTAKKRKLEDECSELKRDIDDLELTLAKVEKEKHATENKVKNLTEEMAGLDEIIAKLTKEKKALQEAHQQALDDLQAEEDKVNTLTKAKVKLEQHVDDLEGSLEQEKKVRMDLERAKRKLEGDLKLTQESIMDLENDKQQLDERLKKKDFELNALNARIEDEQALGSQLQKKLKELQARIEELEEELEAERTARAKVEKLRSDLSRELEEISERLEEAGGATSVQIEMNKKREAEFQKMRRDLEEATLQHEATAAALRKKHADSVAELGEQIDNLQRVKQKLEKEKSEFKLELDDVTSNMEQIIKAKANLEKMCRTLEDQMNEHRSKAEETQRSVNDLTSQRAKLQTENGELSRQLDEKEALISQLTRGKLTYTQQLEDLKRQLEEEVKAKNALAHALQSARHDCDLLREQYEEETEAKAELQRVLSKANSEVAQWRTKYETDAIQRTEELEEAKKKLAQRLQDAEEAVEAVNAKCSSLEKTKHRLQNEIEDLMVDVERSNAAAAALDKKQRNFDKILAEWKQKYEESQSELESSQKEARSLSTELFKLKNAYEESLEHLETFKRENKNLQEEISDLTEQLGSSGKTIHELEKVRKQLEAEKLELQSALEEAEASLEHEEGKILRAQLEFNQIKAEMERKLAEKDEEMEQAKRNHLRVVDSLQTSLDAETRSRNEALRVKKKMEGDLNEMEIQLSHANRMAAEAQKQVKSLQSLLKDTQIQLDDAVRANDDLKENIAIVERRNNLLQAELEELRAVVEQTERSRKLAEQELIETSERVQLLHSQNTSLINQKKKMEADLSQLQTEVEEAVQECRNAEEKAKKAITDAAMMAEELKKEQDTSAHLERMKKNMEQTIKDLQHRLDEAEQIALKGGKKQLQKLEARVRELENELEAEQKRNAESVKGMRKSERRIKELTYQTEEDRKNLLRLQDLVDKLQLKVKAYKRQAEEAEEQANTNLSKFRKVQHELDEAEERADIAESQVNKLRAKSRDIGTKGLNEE
How it was run: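 NADH depletion (A340) coupled through pyruvate kinase/lactate dehydrogenase reports ATPase rate of porcine left-ventricle myofibrils over 75 min kinetic reads. Regression slopes, vehicle-normalized, fitted by 4-parameter logistic give EC25 and, where available, EC50.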

Porcine Atria myofibrils = experiment: Myofibril ATPase assay (PK/LDH NADH-coupled), atria myofibrils
How it was run: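 Values are EC25% (and, for inhibitors, EC50%) from 4-parameter logistic fits of activity normalized to vehicle wells. Rates came from linear regression of 340 nm kinetic reads (every 1.5-2 min, 75 min) of NADH-coupled ATP turnover by porcine atria myofibrils.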

Row | Compound | Rabbit Psoas IC25 [1] [µM] | Porcine Ventricle IC25 [2] [µM] | Porcine Atria IC25 (Porcine Atria myofibrils) [µM]
1 | C[C@@H](NC(=O)[C@H](C)N1Cc2cc(F)ccc2NC1=O)c1ccc(F)cc1F [Compound B239] | 7.191 | 100 | 100.00
2 | C[C@H](C(=O)N[C@H](C)c1ccc(F)cc1F)N1Cc2cc(F)ccc2NC1=O [Compound B240] | 0.8825 | 100 | 25.37
3 | C[C@H](NC(=O)[C@@H](C)N1Cc2cc(F)ccc2NC1=O)c1ccc(F)cc1F [Compound B241] | 0.034 | 1.243 | 0.11
4 | C[C@H](NC(=O)[C@H](C)N1Cc2cc(F)ccc2NC1=O)c1ccc(F)cc1F [Compound B242] | 0.3555 | 100 | 58.71
5 | CC(C(=O)N[C@@H](C)c1ccc(F)cc1F)N1Cc2ccccc2NC1=O (stereo partly drawn) [Compound B243] | 10.96 | 11.52 | 0.19
6 | CC1c2ccccc2NC(=O)N1CC(=O)N[C@@H](C)c1ccc(F)cc1F (stereo partly drawn) [Compound B244, N-[(1S)-1-(2,4-Difluorophenyl)ethyl]-2-(4-methyl-2-oxo-1,4-dihydroquinazolin-3-yl)acetamide] | 0.695 | 4.818 | 2.50
7 | C[C@H](NC(=O)CN1C(=O)Nc2ccccc2C1(C)C)c1ccc(F)cc1F [Compound B245] | 9.295 | 11.66 | 0.94
8 | C[C@H](NC(=O)CN1C(=O)Nc2ccccc2C12CCCCC2)c1ccc(F)cc1F [Compound B246] | 19.62 | 73.7 | 100.00
9 | C[C@H](NC(=O)CN1Cc2c(F)cccc2NC1=O)c1ccc(F)cc1F [Compound B248, N-[(1S)-1-(2,4-Difluorophenyl)ethyl]-2-(5-fluoro-2-oxo-1,4-dihydroquinazolin-3-yl)acetamide] | 0.062 | 0.2832 | 0.05
10 | C[C@H](NC(=O)CN1Cc2ccccc2NC1=O)c1ccc(F)cc1F [Compound B249, N-[(1S)-1-(2,4-difluorophenyl)ethyl]-2-(2-oxo-1,4-dihydroquinazolin-3-yl)acetamide] | 0.02766 | 0.6589 | 0.07
11 | C[C@@H](NC(=O)CN1Cc2c(ccc(F)c2F)NC1=O)c1ncc(C(N)=O)cc1O [Compound B250] | 36.83 | 60.47 | 81.49
12 | C[C@@H](NC(=O)CN1Cc2cc(CN(C)C)ccc2NC1=O)c1ncc(C#N)cc1F [Compound B251] | 100.00 | 100.00 | 8.81
13 | C[C@H](NC(=O)CN1Cc2cc(CN(C)C)ccc2NC1=O)c1ncc(C#N)cc1F [Compound B252] | 36.83 | 60.47 | 81.49
14 | CNC(=O)N1CC2(C1)c1cc(F)ccc1NC(=O)N2CC(=O)N[C@H](C)c1ncc(C#N)cc1F [Compound B253] | 86.41 | 100.00 | 100.00
15 | CNC(=O)N1CC2(C1)c1cc(F)ccc1NC(=O)N2CC(=O)N[C@@H](C)c1ncc(C#N)cc1F [Compound B254] | 100.00 | 100.00 | 100.00
16 | CC(=O)N1CC2(C1)c1cc(F)ccc1NC(=O)N2CC(=O)N[C@H](C)c1ncc(C#N)cc1F [Compound B255] | 100.00 | 100.00 | 100.00
17 | CC(=O)N1CC2(C1)c1cc(F)ccc1NC(=O)N2CC(=O)N[C@@H](C)c1ncc(C#N)cc1F [Compound B256] | 39.41 | 46.27 | 75.74
18 | C[C@@H](NC(=O)CN1Cc2c(ccc(F)c2F)NC1=O)c1ncc(-n2ncnn2)cc1F [Compound B264] | 100.00 | 0.89 | 0.52
19 | C[C@H](NC(=O)CN1Cc2c(ccc(F)c2F)NC1=O)c1ncc(-n2ncnn2)cc1F [Compound B265] | 100.00 | 5.36 | 1.88
20 | C[C@@H](NC(=O)C(C)(C)N1Cc2c(ccc(F)c2F)NC1=O)c1ncc(C#N)cc1F [Compound B266] | 0.95 | 1.38 | 0.05
21 | C[C@H](NC(=O)C(C)(C)N1Cc2c(ccc(F)c2F)NC1=O)c1ncc(C#N)cc1F [Compound B267] | 18.40 | 3.96 | 0.18
22 | C[C@@H](NC(=O)C1(N2Cc3c(ccc(F)c3F)NC2=O)CC1)c1ncc(C#N)cc1F [Compound B268] | 6.91 | 3.06 | 0.11
23 | C[C@@H](NC(=O)CN1Cc2c(ccc(F)c2F)NC1=O)c1cc2cccnc2cn1 [Compound B270] | 100.00 | 100.00 | 1.18

Continued, values first:

Row | Rabbit Psoas IC25 [1] [µM] | Porcine Ventricle IC25 [2] [µM] | Porcine Atria IC25 (Porcine Atria myofibrils) [µM] | Compound
24 | 100.00 | 55.13 | 100.00 | C[C@H](NC(=O)CN1Cc2c(ccc(F)c2F)NC1=O)c1cc2cccnc2cn1 [Compound B271]
25 | 0.74 | 0.75 | 0.05 | C[C@@H](NC(=O)[C@H](C)N1Cc2c(ccc(F)c2F)NC1=O)c1ncc(C#N)cc1F [Compound B272]
26 | 1.57 | 22.58 | 1.96 | C[C@H](C(=O)N[C@H](C)c1ncc(C#N)cc1F)N1Cc2c(ccc(F)c2F)NC1=O [Compound B273]
27 | 100.00 | 95.97 | 1.10 | C[C@@H](NC(=O)CN1Cc2c(ccc(F)c2F)NC1=O)c1ccc2cnccc2n1 [Compound B274]
28 | 100.00 | 100.00 | 8.27 | C[C@H](NC(=O)CN1Cc2c(ccc(F)c2F)NC1=O)c1ccc2cnccc2n1 [Compound B275]
29 | 30.80 | 23.74 | 100.00 | C[C@@H](NC(=O)CN1Cc2cc3c(cc2NC1=O)OCCO3)c1ncc(C#N)cc1F [Compound B276]
30 | 100.00 | 73.20 | 77.49 | C[C@H](NC(=O)CN1Cc2cc3c(cc2NC1=O)OCCO3)c1ncc(C#N)cc1F [Compound B277]
31 | 0.03 | 0.09 | 0.03 | C[C@H](NC(=O)[C@H](C)N1Cc2c(ccc(F)c2F)NC1=O)c1ncc(C#N)cc1F [Compound B278]
32 | 0.57 | 0.70 | 0.11 | C[C@H](NC(=O)[C@@H](C)N1Cc2c(ccc(F)c2F)NC1=O)c1ncc(C#N)cc1F [Compound B279]
33 | 1.08 | 6.55 | 0.61 | C[C@@H](NC(=O)CN1Cc2c(ccc(F)c2F)NC1=O)c1ncc(C#N)s1 [Compound B280]
34 | 100.00 | 100.00 | 86.13 | C[C@@H](NC(=O)CN1Cc2c(ccc(F)c2F)NC1=O)c1ncc(C2COC2)cn1 [Compound B282]
35 | 100.00 | 6.49 | 0.90 | C[C@H](NC(=O)CN1Cc2c(ccc(F)c2F)NC1=O)c1ncc(C2COC2)cn1 [Compound B283]
36 | 100.00 | 0.44 | 0.87 | C[C@@H](NC(=O)CN1Cc2c(ccc(F)c2F)NC1=O)c1cc2ccccc2cn1 [Compound B284]
37 | 100.00 | 100.00 | 100.00 | C[C@H](NC(=O)CN1Cc2c(ccc(F)c2F)NC1=O)c1cc2ccccc2cn1 [Compound B285]
38 | 40.68 | 8.79 | 0.55 | C[C@@H](NC(=O)CN1Cc2c(ccc(F)c2F)NC1=O)c1ccc2ncccc2n1 [Compound B286]
39 | 100.00 | 100.00 | 75.65 | C[C@H](NC(=O)CN1Cc2c(ccc(F)c2F)NC1=O)c1ccc2ncccc2n1 [Compound B287]
40 | 3.98 | 5.29 | 0.26 | C[C@@H](NC(=O)CN1Cc2c(ccc(F)c2F)NC1=O)c1ccc2ccccc2n1 [Compound B288]
41 | 100.00 | 100.00 | 100.00 | C[C@H](NC(=O)CN1Cc2c(ccc(F)c2F)NC1=O)c1ccc2ccccc2n1 [Compound B289]
